Measurements taken from PubChem BioAssay AID179 (DTP/NCI, 2004).
Several values for one entry are separate records, joined by “and”; a condition that tells them apart may be missing. Equal entries are not always repeated. Activity calls are given as the source filed them.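 The calls were made as follows: active = compounds giving half or more protection of infected cells from virus-caused growth loss, again on retest; inactive = the rest.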 Where a SMILES comes first, the peptide text is derived from it. The star is where a group is joined. X9 = CC(=O)NC1C(N*)OC(CO)C(O)C1O; Boc = CC(C)(C)OC(=O)*

Tested on: CEM cells HIV-1 protection, formazan growth assay
Assay: NCI AIDS Antiviral Assay
Conditions: for IC50: measured here: growth of uninfected CEM cells
In short: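 Steps: treat uninfected and HIV-1-infected human CEM cells at five drug levels; quantify growth by soluble formazan; retest any compound reaching 50% protection; classify actives from the retest.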

| Compound | EC50 | IC50 | outcome |
| --- | --- | --- | --- |
| CCC(C)C(NC(=O)CNC(=O)C(Cc1c[nH]cn1)NC(=O)C(NC(=O)C(CS)NC(=O)C(CCC(N)=O)NC(=O)C(NC(=O)C(NC(=O)C(CO)NC(=O)C(NC(=O)C(CC(=O)NC1OC(CO)C(O)C(O)C1NC(C)=O)NC(=O)C(NC(=O)C(CS)NC(=O)C1CCCN1C(=O)CNC(=O)C(NC(=O)CN)C(C)O)C(C)O)C(C)C)C(C)O)C(C)C)C(C)O)C(=O)NC(CCCNC(=N)N)C(N)=O (stereo not drawn) (H-GTGPCTD(X9)VSTVQCTHGIR-NH2; configuration not given here) | > 50.1 µM | > 50.1 µM |  |
| Cc1cc(N(CCC#N)CCC#N)ccc1/C(N=Nc1ccc(C(=O)O)cc1)=N\NC(=O)c1ccccc1 | > 200 µM | 13.5 µM |  |
| O=C1CCCNn2c(nc3ncccc3c2=O)N1 | > 200 µM | 158 µM |  |
| CCC(=O)OC1CCn2c1nc1c2C(=O)C(C)=C(NC(C)=O)C1=N (stereo not drawn) | > 200 µM | 3.55 µM |  |
| COc1nc(NC2OC(COC(C)=O)C(OC(C)=O)C(OC(C)=O)C2OC(C)=O)c(C(=O)CCl)c(=O)n1C (stereo not drawn) |  |  | inactive |
| CCN1C[C@]2(COC)[C@H](O)C[C@H](OC)[C@]34C1[C@H]([C@H](OC)[C@H]23)[C@]1(OC(C)=O)[C@H]2[C@@H](OC(=O)c3ccccc3)[C@](O)(C[C@H]24)[C@@H](OC)[C@@H]1O |  |  | inactive |
| CSC1=N/C(=C\c2ccc(C)cc2)C(=O)N1CN1CCCCC1 | > 200 µM | > 200 µM |  |
| CC(=O)OCC1OC(n2c(C)c(N=Nc3ccc(Cl)cc3)c(C)c(C#N)c2=S)C(OC(C)=O)C(OC(C)=O)C1OC(C)=O (stereo not drawn) | > 200 µM | > 200 µM |  |
| Cc1cc(OCC(O)CO)ccc1Cl (stereo not drawn) | > 1150 µM | 550 µM |  |
| COc1ccccc1C(=O)OCC1CCCN2CCCCC12 (stereo not drawn) | > 200 µM | 27.5 µM |  |
| O=C(Nc1ccccn1)Nc1cc(C(F)(F)F)ccc1Cl | > 200 µM | 182 µM |  |
| COc1ccc2nc3cc(Cl)ccc3c(SCC(=O)Nc3ccccc3-c3ccccc3NC(=O)CSc3c4ccc(Cl)cc4nc4ccc(OC)cc34)c2c1 | > 8.91 µM | > 8.91 µM |  |
| Cc1c(C(=O)C(=O)c2ccccc2)c(C)c(C(=O)C(=O)c2ccccc2)c(C)c1C(=O)C(=O)c1ccccc1 | > 200 µM | > 200 µM |  |
| O=C(c1ccccc1)N1C2C3CC(OCc4ccccc4)(OCc4ccccc4)C(O3)C21 (stereo not drawn) | > 17 µM | > 17 µM |  |
| CCS1=C(C(C)=O)C(=O)O[C@H](C)C1 (stereo partly drawn) | > 1230 µM | > 1230 µM |  |
| N#C/C(=C\c1ccccc1)c1ccc(F)cc1F | > 200 µM | 37.2 µM |  |
| O=C(O)c1cc(Cc2cc(Cl)c(O)c(C(=O)O)c2)cc(Cl)c1O | > 501 µM | 347 µM and 204 µM |  |
| CC(=O)Oc1c(OC(C)=O)c(C=O)c2c(OC(C)=O)c(-c3c(C)cc4c(C(C)C)c(OC(C)=O)c(OC(C)=O)c(C=O)c4c3OC(C)=O)c(C)cc2c1C(C)C | > 200 µM | 8.91 µM |  |
| O=C(CSc1nnc(-c2ccc(N=Cc3ccc(Cl)cc3)cc2)o1)Nc1cccc(Cl)c1 | > 74.1 µM | > 74.1 µM |  |
| Nc1nc(=O)nc2[nH]c3c4cccc5cccc(c3nc12)c54 | > 200 µM | 141 µM and > 200 µM |  |
| COc1ccccc1C(=O)[O][Sn]([c]1ccccc1)([c]1ccccc1)[c]1ccccc1 | > 2 µM | 0.219 µM |  |

| Compound | EC50 | IC50 | outcome |
| --- | --- | --- | --- |
| ClCc1nn(-c2ccccc2)c(CCl)c1CCl | > 200 µM | 1.23 µM |  |
| Nc1nc(SCc2ccccc2)c2ncn(CCO)c2n1 | > 200 µM | 191 µM |  |
| CN(/N=C/c1ccnc2ccccc12)c1ccc([N+](=O)[O-])cc1[N+](=O)[O-] |  |  | inactive |
| S=C(NNc1ccccc1Oc1ccccc1)NNc1ccccc1Oc1ccccc1 | > 100 µM | > 100 µM |  |
| Cc1ccc(S(=O)(=O)n2cc(/C=C/C#N)c(-c3cn(S(=O)(=O)c4ccc(C)cc4)cc3-c3cn(S(=O)(=O)c4ccc(C)cc4)cc3/C=C/C#N)c2)cc1 | > 200 µM | > 200 µM |  |
| CC(C)=CCOc1cc(NC(=S)c2ccoc2C)ccc1Cl | 0.0759 µM | 30.2 µM |  |
| Cc1cc(=O)n(-c2cc3cccccc-3n2)[nH]1 |  |  | inactive |
| N/N=C1\CCCc2c1no[n+]2[O-] | > 200 µM | > 200 µM |  |
| Nc1ccc2c(c1)C1=NNC(=O)CC1C2 (stereo not drawn) |  |  | inactive |
| O=C(Nc1c(Cl)cc([N+](=O)[O-])cc1Cl)C(=O)C(C(=O)c1ccncc1)C1OC(=O)c2ccccc21 (stereo not drawn) |  |  | inactive |
| O=C1CC(Cc2n[nH]c3c2CCCC3)CC(=O)N1 | > 200 µM | > 200 µM |  |
| CC(=O)c1c(O)c2c(c(C(C)=O)c1O)OC(C)(C)C=C2 | > 9.55 µM | > 9.55 µM |  |
| CCOc1cc[n+](C(=C=[N-])C#N)cc1 |  |  | inactive |
| COc1cc2c(c(OC)c1OC)C(=O)CC2N (stereo not drawn) | > 200 µM | > 200 µM |  |
| CC(NC(=O)C(NC(=O)OC(C)(C)C)C(C)C)C(=O)N1CCCC1C(=O)NCC(=O)NC(C(=O)NCC(=O)O)C(C)C (stereo not drawn) (Boc-VAPGVG-OH; configuration not given here) | > 200 µM | > 200 µM |  |
| COc1ccccc1N1C(=O)CSC1=Nc1ccccc1 | > 112 µM | > 112 µM |  |
| CC(C1=C(O)c2ccccc2C(=O)C1=O)C1=C(O)c2ccccc2C(=O)C1=O | > 200 µM | 50.1 µM |  |
| Cc1ccc(NC(=O)C(=O)CC(=O)C2CCOC2=O)c(C)c1 (stereo not drawn) |  |  | inactive |
| C/C(CC(=O)Nc1cccc(Cl)c1C)=N\N=C(N)N | > 91.2 µM | > 91.2 µM |  |
| CN(C)CCCCN1c2ccccc2Sc2ccc(C(=O)c3ccccc3)cc21 | > 200 µM | 6.61 µM |  |
| CC(=O)OCC12C(OC(C)=O)C[C@@H](C)C3(CC(c4ccoc4)OC3=O)C1CCC(O)C21CO1 (stereo partly drawn) | > 200 µM | > 200 µM |  |

| Compound | EC50 | IC50 | outcome |
| --- | --- | --- | --- |
| COC(=O)c1ccc(NCc2cc(O)c3ccccc3c2O)cc1 | > 200 µM | 3.02 µM |  |
| O=C(O)COc1ccc(Cl)cc1Cc1cc(Cl)ccc1OCC(=O)O | > 200 µM | 89.1 µM |  |
| CC(=O)OCC1OC(n2c3c(c(-c4ccc(Cl)cc4)c(C#N)c2=S)CCCC3)C(OC(C)=O)C(OC(C)=O)C1OC(C)=O (stereo not drawn) | > 200 µM | 26.3 µM |  |
| COc1ccc2c(=O)c(-c3cc4c(cc3OC)OCO4)coc2c1 | > 200 µM | > 200 µM |  |
| CCCCCCCCCc1cc(=O)c2ccc(OCc3ccccc3)cc2o1 | > 2.75 µM | > 2.75 µM |  |
| CC(C)=C1CC(C)(C)N=C1CCN1CCOCC1 | > 200 µM | 2.95 µM |  |
| O=C1COc2ccc(F)cc2N1 | > 380 µM | > 380 µM |  |
| O=C(OC(CC[P+](c1ccccc1)(c1ccccc1)c1ccccc1)(C(=O)c1ccccc1)c1ccccc1)c1ccccc1 (stereo not drawn) | > 200 µM | 1.07 µM |  |
| CCOC(=O)c1sc2nc(SC)nc3c2c1NCN3c1ccccc1Cl | > 200 µM | > 200 µM |  |
| O=C(NNC(c1ccccc1)C(F)(F)F)c1ccncc1 (stereo not drawn) | > 200 µM | > 200 µM |  |
| COc1ccc(/C=C2/N=C(c3ccccc3)OC2=O)cc1OC | > 23.4 µM | > 23.4 µM |  |
| CC1(c2cccc3ccc(F)cc23)OC(=O)c2ccccc21 (stereo not drawn) | > 41.7 µM | 7.94 µM |  |
| CC1=C(N(C)C)C(=O)c2nc3n(c2C1=O)CCC3OC(N)=O (stereo not drawn) | > 200 µM | 11.2 µM |  |
| CCOC(=O)/C=C/[C@H](O[Si](c1ccccc1)(c1ccccc1)c1ccccc1)C(C)(C)C | > 200 µM | > 200 µM |  |
| CCNC(=O)c1c(O)c2ccccc2[nH]c1=O | > 200 µM | > 200 µM |  |
| O=C(CCc1ccc(O)cc1)NCCCNC(=O)CCc1ccc(O)cc1 | > 200 µM | > 200 µM |  |
| COCCOCCOC(=O)C(CO)(CC(CO)(C(C)=O)C(=O)OCCOCCOC)C(C)=O (stereo not drawn) | > 200 µM | > 200 µM |  |
| COc1ccccc1/C=C1/Sc2scc(CC(=O)Nc3ccccc3)[n+]2C1=O |  | 28.8 µM | inactive |
| S=C(Nc1cccc2ccccc12)NN1CCCCCC1 | > 17.4 µM | > 17.4 µM |  |
| Clc1nc(Cl)nc(-c2ccccc2)n1 | > 200 µM | > 200 µM |  |
| CCN1C(=O)C(N2CCCCC2)S/C1=C\C(=O)O (stereo not drawn) | > 933 µM | 457 µM |  |

| Compound | EC50 | IC50 | outcome |
| --- | --- | --- | --- |
| CCC1CC[N-]CC1.CCC1CC[N-]CC1.CCC1CC[N-]CC1.CCC1CC[N-]CC1.N#C[S-].N#C[S-].[Mn] | > 200 µM | 27.5 µM |  |
| CN1C(=O)C2C(=O)N(Cc3ccccc3)CC(=O)N2c2cccnc21 (stereo not drawn) | > 200 µM | > 200 µM |  |
| c1ccc(N=c2nc(Nc3ccccc3)ss2)cc1 | > 200 µM | 30.9 µM |  |
| O=C(Cc1nc2ccccc2c(=O)n1-c1ccccc1Cl)c1ccncc1 | > 5.37 µM | > 5.37 µM |  |
| NC(=O)c1c2n(c3ncnc(N)c13)C1OC(CO)C(O)C1S2 (stereo not drawn) | > 389 µM | > 389 µM |  |
| C#CC(C)(C)Oc1cc(OC)c2c(=O)c3ccccc3n(C)c2c1 | > 200 µM | 11 µM |  |
| C[CH2][Sn]([CH2]C)([O]C(=O)c1ccc(F)cc1)[O][Sn]([CH2]C)([CH2]C)[O]C(=O)c1ccc(F)cc1 | > 8.13 µM | 6.61 µM |  |
| CCC1CC2CC3c4[nH]c5ccc(OC)cc5c4CCN(C2)C13 (stereo not drawn) |  |  | inactive |
| CSC(=S)CC(O)[C@@H]1CC2c3ccccc3C1c1ccccc12 (stereo partly drawn) | > 200 µM | 3.47 µM |  |
| O=C(/C=C\c1cccc2ccccc12)c1cccc2ccccc12 | > 8.91 µM | > 8.91 µM |  |
| CC(C)(C)C1CC[C@H](O)[C@H]([C@H](O)CC2CC(=O)N(c3ccccc3)C(=O)C2)C1 (stereo partly drawn) | > 200 µM | > 200 µM |  |
| COc1cc2c(cc1O)N=C[C@@H]1CCC(O)N1C2=O (mixture of isomers) | > 324 µM | 0.575 µM |  |
| CCN(CC)C(=O)c1cc(OC(C)C)ccc1-c1c(C)cc(OC(C)C)c(OC)c1OC | > 214 µM | > 214 µM |  |
| COC(=O)N/N=C(\C)C(CN(C)C)C(c1ccccc1)c1c(O)c2ccccc2oc1=O (stereo not drawn) | > 28.8 µM | > 28.8 µM |  |
| C#CCOCn1cnc2c(N)ncnc21 | > 1230 µM | 692 µM |  |
| COc1ccc2nc(NC(=O)C(=O)C(C(=O)c3ccccc3-c3ccccc3)C3OC(=O)c4ccccc43)sc2c1 (stereo not drawn) | > 45.7 µM | 25.1 µM |  |
| C=CC(CCC(C)O)[Si](C)(C)C (stereo not drawn) | > 977 µM | > 977 µM |  |
| COc1cc(OCc2ccc3nc(OC)c(OC)nc3c2)cc(OC)c1OC | > 200 µM | > 200 µM |  |
